Like-named read-outs stand apart in the source and are kept apart here.

The text below walks through data of patent EP1120414A1, “DISUBSTITUTED MALEIMIDE COMPOUNDS AND MEDICINAL UTILIZATION THEREOF” (Japan Tobacco Inc., priority 1998, dated 2000).

One experiment concerns the target T1, PKC β II (Homo sapiens, UniProt P05771).
T1 construct: purchased CALBIOCHEM
As to the kind of experiment: PKC enzyme assay (BIOTRAK Protein kinase C enzyme assay system, 32P-ATP phosphorylation of peptide […]). It is filed as biochemical. Conditions: for Ratio α/β: IC50 PKC α / IC50 PKC β II.

In the next experiment the target is T2, PKC α (Homo sapiens, UniProt P17252).
T2 construct: purchased CALBIOCHEM
The description is as above. It is filed as biochemical. The essentials:
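Recombinant human PKC (400 ng/ml solution) phosphorylated the supplied peptide with [γ-32P]ATP in calcium, phosphatidylserine/PMA, DTT and Mg-ATP buffer, 15 min at 37°C. Compounds were tested at 1 nM-10 µM final. Phosphocellulose-bound radioactivity relative to DMSO gave inhibition, from which IC50 was calculated.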

Where [1] appears, read: Protein Kinase C, Human Recombinant, test substance 1 nM-10 µM, 37°C, 15 minutes, read-out: Inhibition of PKC activity IC50 PKC β II.
The mark [2] stands for this setting: Protein Kinase C, Human Recombinant, test substance 1 nM-10 µM, 37°C, 15 minutes, read-out: Inhibition of PKC activity IC50 PKC α.
Where [3] appears, read: read-out: Inhibition of PKC activity IC50 PKC β II, Protein Kinase C, Human Recombinant, test substance 1 nM-10 µM, 37°C, 15 minutes.
The mark [4] stands for this setting: read-out: Inhibition of PKC activity IC50 PKC α, Protein Kinase C, Human Recombinant, test substance 1 nM-10 µM, 37°C, 15 minutes.

T1 sequence (P05771 other isoform, or with tags, fused parts or gaps): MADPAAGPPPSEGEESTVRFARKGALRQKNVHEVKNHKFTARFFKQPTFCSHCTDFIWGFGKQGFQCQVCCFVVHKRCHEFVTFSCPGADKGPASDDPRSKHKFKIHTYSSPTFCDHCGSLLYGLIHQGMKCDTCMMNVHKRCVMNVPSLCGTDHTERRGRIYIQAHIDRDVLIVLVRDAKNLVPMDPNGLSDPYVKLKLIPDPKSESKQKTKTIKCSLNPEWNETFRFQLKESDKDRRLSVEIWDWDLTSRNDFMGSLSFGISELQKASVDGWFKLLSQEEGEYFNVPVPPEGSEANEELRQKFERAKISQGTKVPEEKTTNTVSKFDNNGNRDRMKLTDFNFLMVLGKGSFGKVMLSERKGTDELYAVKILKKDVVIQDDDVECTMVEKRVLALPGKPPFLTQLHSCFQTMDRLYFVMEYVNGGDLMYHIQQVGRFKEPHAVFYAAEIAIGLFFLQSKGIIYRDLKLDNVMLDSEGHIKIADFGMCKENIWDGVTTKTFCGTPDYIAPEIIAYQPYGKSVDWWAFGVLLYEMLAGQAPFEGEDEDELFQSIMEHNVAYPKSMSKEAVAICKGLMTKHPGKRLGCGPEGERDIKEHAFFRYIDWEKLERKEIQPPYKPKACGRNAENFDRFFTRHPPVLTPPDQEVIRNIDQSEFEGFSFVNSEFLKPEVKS

With `Cc1cccc(NC2=C(c3cn(CCCN(C)C)c4ccccc34)C(=O)NC2=O)c1` [Example 2-11, 3-[1-(3-dimethylaminopropyl)-1H-indol-3-yl]-4-[(3-methylphenyl)amino]-1H-pyrrole-2,5-dione], the “Ratio α/β” value on PKC β II amounted to 49. The IC50 on PKC β II (setting [1]) came out at 15 nM; on PKC α (setting [2]) it was 727 nM.

In the case of `Cc1c(C2=C(Nc3ccccc3)C(=O)NC2=O)c2ccccc2n1CCCN1CCCCC1` [Example 2-53, 3-[2-methyl-1-(3-piperidinopropyl)-1H-indol-3-yl]-4-(phenylamino)-1H-pyrrole-2,5-dione], the “Ratio α/β” value at PKC β II is 102. For the same molecule, the IC50 at PKC β II (setting [1]) is 98 nM; at PKC α (setting [2]) it was above 10000 nM.

Turning to `O=C1NC(=O)C(c2cn(CCCCCn3ccnc3)c3ccccc23)=C1Nc1ccccc1` [Example 2-41, 3-[1-(5-imidazol-1-ylpentyl)-1H-indol-3-yl]-4-(phenylamino)-1H-pyrrole-2,5-dione], the “Ratio α/β” value on PKC β II stood at 44. In addition, the results for the IC50 on PKC β II (setting [1]) and on PKC α (setting [2]) were 62 nM and 2740 nM, respectively.

Turning to `O=C1NC(=O)C(c2cn(CCCN3CCC(CO)CC3)c3ccccc23)=C1Nc1ccccc1` [Example 2-50, 3-[1-{3-[4-(hydroxymethyl)piperidino]propyl}-1H-indol-3-yl]-4-(phenylamino)-1H-pyrrole-2,5-dione], on PKC β II, the “Ratio α/β” value came to 47. In addition, the IC50 at PKC β II (setting [1]) worked out at 19 nM; at PKC α (setting [2]), 886 nM.

Take `Cl.N=C(N)N1CCC(Cn2cc(C3=C(Nc4ccccc4)C(=O)NC3=O)c3ccccc32)CC1` [Example 3-7, 3-[1-{(1-amidinopiperidin-4-yl)methyl}-1H-indol-3-yl]-4-(phenylamino)-1H-pyrrole-2,5-dione hydrochloride]: the “Ratio α/β” value at PKC β II worked out at 46. For the same molecule, the IC50 at PKC β II (setting [1]) was 56 nM; at PKC α (setting [2]), 2560 nM.

With `O=C1NC(=O)C(c2cn(CCCn3ccnc3)c3ccccc23)=C1Nc1cccc(Cl)c1` [Example 2-39, 3-[(3-chlorophenyl)amino]-4-[1-(3-imidazol-1-ylpropyl)-1H-indol-3-yl]-1H-pyrrole-2,5-dione], the “Ratio α/β” value on PKC β II was 17. For the same molecule, the IC50 at PKC β II (setting [1]) was determined as 21 nM; on PKC α (setting [2]), 354 nM.

For the molecule `CCN(CCCn1cc(C2=C(Nc3ccccc3)C(=O)NC2=O)c2ccccc21)Cc1ccccc1` [Example 2-17, 3-[1-{3-(N-benzyl-N-ethylamino)propyl}-1H-indol-3-yl)-4-(phenylamino)-1H-pyrrole-2,5-dione], at PKC β II, the “Ratio α/β” value is listed as 45. The IC50 was found to be 103 nM on PKC β II (setting [1]) and 4630 nM at PKC α (setting [2]).

With `CN(C)CCN(C)CCn1cc(C2=C(Nc3ccccc3)C(=O)NC2=O)c2ccccc21` [Example 2-16, 3-[1-{2-[N-(2-dimethylaminoethyl)-N-methylamino]ethyl}-1H-indol-3-yl]-4-(phenylamino)-1H-pyrrole-2,5-dione], the “Ratio α/β” value at PKC β II is recorded as 79. The results for the IC50 at PKC β II (setting [1]) and at PKC α (setting [2]) were 80 nM and 6290 nM, respectively.

For the molecule `CCN(C)CC1CCc2c(C3=C(Nc4ccccc4)C(=O)NC3=O)c3ccccc3n2C1` (stereo not shown) [Example 4-51], at PKC β II, the IC50 came out at 7 nM and the “Ratio α/β” value is on record as 101. This molecule yielded an IC50 against PKC α of 708 nM.

For `O=C1NC(=O)C(c2cn(CCCN3CCC(N4CCCC4)CC3)c3ccccc23)=C1Nc1ccccc1` [Example 2-49, 3-[1-(3-(4-pyrrolidinylpiperidino)propyl}-1H-indol-3-yl]-4-(phenylamino)-1H-pyrrole-2,5-dione], the IC50 was 8 nM against PKC β II and 723 nM on PKC α.

Consider `O=C1NC(=O)C(c2cn(CCCCn3ccnc3)c3ccccc23)=C1Nc1cccc(Cl)c1` [Example 2-40, 3-[(3-chlorophenyl)amino]-4-[1-(4-imidazol-1-ylbutyl)-1H-indol-3-yl]-1H-pyrrole-2,5-dione], for which, at PKC β II, the “Ratio α/β” value was found to be 41. For the same molecule, the IC50 came out at 19 nM on PKC β II (setting [1]) and 770 nM on PKC α (setting [2]).

Turning to `O=C1NC(=O)C(c2cn(CCN3CCC(O)CC3)c3ccccc23)=C1Nc1ccccc1` [Example 2-47, 3-[1-{2-(4-hydroxypiperidino)ethyl}-1H-indol-3-yl]-4-(phenylamino)-1H-pyrrole-2,5-dione], the “Ratio α/β” value on PKC β II came to 36. The IC50 at PKC β II (setting [1]) was 66 nM; on PKC α (setting [2]), 2340 nM.

Turning to `O=C1NC(=O)C(c2c3n(c4ccccc24)C[C@@H](CN2CCOCC2)C3)=C1Nc1ccccc1` [Example 4-71], the “Ratio α/β” value at PKC β II was 108. For the same molecule, the IC50 at PKC β II (setting [3]) turned out to be 41 nM; on PKC α (setting [4]) it was 4450 nM.

`O=C1NC(=O)C(c2cn(CCCN3CCC(O)CC3)c3ccccc23)=C1Nc1ccccc1` [Example 2-25, 3-[1-{3-(4-hydroxypiperidino)propyl}-1H-indol-3-yl]-4-(phenylamino)-1H-pyrrole-2,5-dione]: the “Ratio α/β” value on PKC β II is 46. Moreover, the figures for the IC50 at PKC β II (setting [1]) and on PKC α (setting [2]) were 9 nM and 413 nM, respectively.

Take `O=C1NC(=O)C(c2c3n(c4ccccc24)C[C@@H](CO)C3)=C1Nc1ccc(F)cc1` [Example 4-68]: the “Ratio α/β” value on PKC β II came to 85. Also, the concentration for half-maximal inhibition (IC50) at PKC β II (setting [3]) came out at 4 nM; at PKC α (setting [4]), 341 nM.

In the case of `O=C1NC(=O)C(c2cn(CCO)c3ccccc23)=C1Nc1ccccc1` [Example 2-4, 3-[1-(2-hydroxyethyl)-1H-indol-3-yl]-4-(phenylamino)-1H-pyrrole-2,5-dione], the “Ratio α/β” value at PKC β II stood at 79. The figures for the IC50 on PKC β II (setting [1]) and at PKC α (setting [2]) were 73 nM and 5800 nM, respectively.

On to `O=C1NC(=O)C(c2c3n(c4ccccc24)C[C@H](CO)C=C3)=C1Nc1ccccc1` [Example 4-43], for which the “Ratio α/β” value at PKC β II stood at 107. Besides, the IC50 at PKC β II (setting [3]) amounted to 7 nM; at PKC α (setting [4]), 749 nM.

As to `O=C1NC(=O)C(c2cn(CCCN3CCCC3)c3ccccc23)=C1Nc1ccccc1` [Example 2-22, 3-(phenylamino)-4-(1-(3-pyrrolidin-1-ylpropyl)-1H-indol-3-yl]-1H-pyrrole-2,5-dione], the “Ratio α/β” value at PKC β II amounted to 37. The half-inhibitory concentration (IC50) on PKC β II (setting [1]) was 18 nM; on PKC α (setting [2]), 662 nM.

With `O=C1NC(=O)C(c2c3n(c4ccccc24)CC[C@H](CN2CCOCC2)C3)=C1Nc1ccccc1` [Example 4-26], the “Ratio α/β” value on PKC β II is reported as 85. Besides, the IC50 on PKC β II (setting [3]) was determined as 9 nM; at PKC α (setting [4]), 768 nM.

Regarding `CN(C)C[C@H]1CCc2c(C3=C(Nc4ccccc4)C(=O)NC3=O)c3ccccc3n2C1` [Example 4-55], at PKC β II, the “Ratio α/β” value is given as 63. Further, the IC50 at PKC β II (setting [1]) worked out at 4 nM; on PKC α (setting [4]), 252 nM.

On to `Cc1nccn1CCCn1cc(C2=C(Nc3cccc(Cl)c3)C(=O)NC2=O)c2ccccc21` [Example 2-42, 3-[(3-chlorophenyl)amino]-4-[1-{3-(2-methylimidazol-1-yl)propyl}-1H-indol-3-yl]-1H-pyrrole-2,5-dione], for which, on PKC β II, the “Ratio α/β” value is 45. Also, the IC50 on PKC β II (setting [1]) stood at 10 nM; at PKC α (setting [2]) it was 452 nM.

With `COC[C@H]1Cc2c(C3=C(Nc4ccccc4)C(=O)NC3=O)c3ccccc3n2C1` [Example 4-56], at PKC β II, inhibition was half-maximal at 40 nM (IC50) and the “Ratio α/β” value was found to be 131. At PKC α, the IC50 amounted to 5220 nM.

`CCN(CC)C[C@H]1CCc2c(C3=C(Nc4ccccc4)C(=O)NC3=O)c3ccccc3n2C1` [Example 4-54]: the “Ratio α/β” value on PKC β II is given as 57. For the same molecule, the IC50 turned out to be 10 nM at PKC β II (setting [3]) and 569 nM on PKC α (setting [4]).

Take `CNC[C@H]1Cc2c(C3=C(Nc4ccccc4)C(=O)NC3=O)c3ccccc3n2C1` [Example 4-70]: the “Ratio α/β” value at PKC β II was 159. Further, the IC50 at PKC β II (setting [3]) is 1 nM; at PKC α (setting [4]), 159 nM.

With `Cc1c(C2=C(Nc3ccccc3)C(=O)NC2=O)c2ccccc2n1CCCn1ccnc1` [Example 2-69, 3-[1-(3-imidazol-1-ylpropyl)-2-methyl-1H-indol-3-yl]-4-(phenylamino)-1H-pyrrole-2,5-dione], the “Ratio α/β” value on PKC β II is given as 117. Moreover, the values for the IC50 at PKC β II (setting [1]) and at PKC α (setting [2]) were 20 nM and 2350 nM, respectively.

Consider `CN1CCN(CCCCn2cc(C3=C(Nc4ccccc4)C(=O)NC3=O)c3ccccc32)CC1` [Example 2-29, 3-[1-{4-(4-methylpiperazin-1-yl)butyl}-1H-indol-3-yl]-4-(phenylamino)-1H-pyrrole-2,5-dione], for which the “Ratio α/β” value on PKC β II came out at 75. For the same molecule, the IC50 was determined as 25 nM on PKC β II (setting [1]) and 1870 nM at PKC α (setting [2]).

As to `CCN(C)C[C@@H]1CCc2c(C3=C(Nc4ccccc4)C(=O)NC3=O)c3ccccc3n2C1` [Example 4-40], at PKC β II, the IC50 came to 6 nM and the “Ratio α/β” value was determined as 93. Moreover, the IC50 against PKC α was 557 nM.

With `COc1ccc(NC2=C(c3cn(CCCn4ccnc4)c4ccccc34)C(=O)NC2=O)cc1` [Example 2-65, 3-[1-(3-imidazol-1-ylpropyl)-1H-indol-3-yl]-4-[(4-metholyphenyl)amino]-1H-pyrrole-2,5-dione], at PKC β II, the “Ratio α/β” value amounted to 47. In addition, the IC50 at PKC β II (setting [1]) worked out at 10 nM; on PKC α (setting [2]), 473 nM.

Consider `O=C1NC(=O)C(c2c[nH]c3ccccc23)=C1Nc1ccccc1` [Example 1-2, 3-(1H-indol-3-yl)-4-(phenylamino)-1H-pyrrole-2,5-dione], for which the IC50 at PKC β II (setting [1]) amounted to 223 nM; at PKC α (setting [2]), 7230 nM.

`O=C1NC(=O)C(c2c3n(c4ccccc24)CC(CN2CCC(O)CC2)C3)=C1Nc1ccccc1` (stereo not shown) [Example 4-27]: the “Ratio α/β” value at PKC β II came out at 64. Also, the IC50 at PKC β II (setting [3]) amounted to 13 nM; on PKC α (setting [4]), 831 nM.

`O=C1NC(=O)C(c2cn(CCCO)c3ccccc23)=C1Nc1cccc(Cl)c1` [Example 2-3, 3-[(3-chlorophenyl)amino]-4-[1-(3-hydroxypropyl)-1H-indol-3-yl]-1H-pyrrole-2,5-dione]: the “Ratio α/β” value on PKC β II worked out at 85. Besides, the values for the IC50 on PKC β II (setting [1]) and on PKC α (setting [2]) were 46 nM and 3900 nM, respectively.

What is called IC50 is the point on the concentration scale where inhibition reaches its midpoint.
